Data on 25 compounds can be found in patent publication US9301951B2 (Ardelyx, Inc., priority 2010, dated 2016).

This assay concerns the target T1, rat NaP2b (SLC34A2) (Rattus norvegicus, UniProt Q9JJ09).
T1 construct: host or cells: HEK293
T1 sequence (Q9JJ09 1-695): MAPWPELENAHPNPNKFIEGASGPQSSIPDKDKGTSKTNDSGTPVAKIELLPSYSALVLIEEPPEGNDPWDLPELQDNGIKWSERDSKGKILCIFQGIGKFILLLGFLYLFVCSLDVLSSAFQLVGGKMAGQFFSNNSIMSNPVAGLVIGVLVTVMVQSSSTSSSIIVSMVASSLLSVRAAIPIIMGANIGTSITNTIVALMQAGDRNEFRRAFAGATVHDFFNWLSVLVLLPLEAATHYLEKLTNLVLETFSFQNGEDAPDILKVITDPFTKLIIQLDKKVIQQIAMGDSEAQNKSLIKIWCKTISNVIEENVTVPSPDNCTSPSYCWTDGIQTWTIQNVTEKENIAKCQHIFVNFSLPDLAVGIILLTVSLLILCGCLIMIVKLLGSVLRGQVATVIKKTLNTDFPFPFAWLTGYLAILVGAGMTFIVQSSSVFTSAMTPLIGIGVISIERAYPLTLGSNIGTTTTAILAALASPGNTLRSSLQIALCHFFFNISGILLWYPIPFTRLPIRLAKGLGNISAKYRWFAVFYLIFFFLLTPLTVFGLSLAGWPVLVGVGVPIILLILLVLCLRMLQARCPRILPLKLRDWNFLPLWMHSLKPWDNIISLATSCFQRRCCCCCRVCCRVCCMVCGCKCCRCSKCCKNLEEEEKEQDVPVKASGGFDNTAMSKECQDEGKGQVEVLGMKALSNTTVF
As to the kind of experiment: Inhibition of NaP2b-mediated Pi (33P) uptake in transfected HEK293 cells, rat NaP2b. The assay is classed as cell-based. The settings on record: HEK293 cells transfected with rat NaP2b, 100 uM phosphate, 0.1 nM to 30 uM, read-out: pIC50 range for rat Nap2b (converted). The method, then: HEK293 cells were obtained from the American Type Culture collection and propagated per their instructions. Expression clones for rat and human NaP2b (SLC34A2) were obtained from Open Biosystems (Catalog numbers MRN1768-9510282, and MHS1010-99823026, respectively). The sequence of the human protein was mutated to insert a threonine after residue 37, and to introduce a N39D mutation.
Cells were seeded into 96-well plates at 25,000 cells/well and cultured overnight. Lipofectamine 2000 (Invitrogen) was used to introduce the NaP2b cDNA, and the cells were allowed to approach confluence during a second overnight incubation. […] Cells were then overlayed with either choline uptake buffer or sodium uptake buffer (14 mM Tris, 137 mM sodium chloride, 5.4 mM KCl, 2.8 mM CaCl2, 1.2 mM MgSO4, 100 uM KH2PO4, PiT-silencing agent, 1 mg/mL Bovine Serum Albumin, pH 7.4) containing 6-9 uCi/mL ^33P orthophosphoric acid (Perkin Elmer) and test compound. Each compound was tested at twelve concentrations ranging from 0.1 nM to 30 uM. Assays were run in duplicate.
Cells were lysed by addition of 20 μL 0.1% Tween 80 followed by 100 μL scintillation fluid, and counted using a TopCount (Perkin Elmer).
pIC50 (the negative log of the […]) values of the test compounds were calculated using GraphPad Prism.
As to `CC(=O)NC1CCN(Cc2cccc(C(=O)Nc3ccc(N4CCCCC4)cc3-c3cc(C(=O)NCc4cccc(C(F)(F)F)c4)ccn3)c2)C1` (stereo in doubt) [Example 48, (S)-2-(2-(3-((3-Acetamidopyrrolidin-1-yl)methyl)benzamido)-5-(piperidin-1-yl)phenyl)-N-(3-(trifluoromethyl)benzyl)isonicotinamide], the IC50 was 1 to 7.94 µM.

In the case of `O=C(O)CCSCc1cccc(C(=O)Nc2ccc(N3CCCCC3)cc2-c2cc(C(=O)NCc3ccccc3)ccn2)c1` [Example 1.4], the IC50 was 1 to 7.94 µM.

In the case of `O=C(O)CCSCc1cccc(C(=O)Nc2ccc(N3CCCCC3)cc2-c2cc(C(=O)N3CCCC3c3ccccc3)ccn2)c1` (stereo not shown) [Example 1.9], the IC50 was 10 to 31.6 µM.

On to `O=C(O)CCSCc1cccc(C(=O)Nc2ccc(N3CCCCC3)cc2-c2cc(C(=O)NCCCCCCCCCCCCNC(=O)c3ccnc(-c4cc(N5CCCCC5)ccc4NC(=O)c4cccc(CSCCC(=O)O)c4)c3)ccn2)c1` [Example 2], for which the IC50 is 10 to 31.6 µM.

`O=C(O)CCSCc1cccc(C(=O)Nc2ccc(N3CCCCC3)cc2-c2cc(C(O)CCc3ccccc3)ccn2)c1` (stereo not shown) [Example 6.1, 3-((3-((2-(4-(1-hydroxy-3-phenylpropyl)pyridin-2-yl)-4-(piperidin-1-yl)phenyl)carbamoyl)benzyl)thio)propanoic acid]: the IC50 was 10 to 31.6 µM.

Consider `CC(C)Oc1ccc(NC(=O)c2cccc(CSCCC(=O)O)c2)c(-c2cc(C(=O)NCc3cccc(C(F)(F)F)c3)ccn2)c1` [Example 15, 3-((3-((4-Isopropoxy-2-(4-((3-(trifluoromethyl)benzyl)carbamoyl)pyridin-2-yl)phenyl)carbamoyl)benzyl)thio)propanoic acid], for which the IC50 was 1 to 7.94 µM.

For the compound `COCCN(CCOC)c1ccc(NC(=O)c2cccc(CSCCC(=O)O)c2)c(-c2cc(C(=O)NCc3cccc(C(F)(F)F)c3)ccn2)c1` [Example 17, 3-(3-((2-(4-((3-(trifluoromethyl)benzyl)carbamoyl)pyridin-2-yl)-4-(bis(2-methoxyethyl)amino)phenyl)carbamoyl)benzylthio)propanoic acid], the IC50 is 1 to 7.94 µM.

For `O=C(O)CCSCc1cccc(C(=O)Nc2ccc(F)cc2-c2cc(C(=O)NCc3cccc(C(F)(F)F)c3)ccn2)c1` [Example 18, 3-((3-((4-Fluoro-2-(4-((3-(trifluoromethyl)benzyl)carbamoyl)pyridin-2-yl)phenyl)carbamoyl)benzyl)thio)propanoic acid], the IC50 is 1 to 7.94 µM.

In the case of `CCCN(CCC)c1ccc(NC(=O)c2cccc(CSCCC(=O)O)c2)c(-c2cc(C(=O)NCc3cccc(C(F)(F)F)c3)ccn2)c1` [Example 19, 3-((3-((4-(Dipropylamino)-2-(4-((3-(trifluoromethyl)benzyl)carbamoyl)pyridin-2-yl)phenyl)carbamoyl)benzyl)thio)propanoic acid], the IC50 was 1 to 7.94 µM.

As for `O=C(O)CCSCc1cccc(C(=O)Nc2ccc(N3CCCC3)cc2-c2cc(C(=O)NCc3cccc(C(F)(F)F)c3)ccn2)c1` [Example 20, 3-((3-((4-(Pyrrolidin-1-yl)-2-(4-((3-(trifluoromethyl)benzyl)carbamoyl)pyridin-2-yl)phenyl)carbamoyl)benzyl)thio)propanoic acid], the IC50 was 1 to 7.94 µM.

For the compound `O=C(O)CCSCc1cccc(C(=O)Nc2ccccc2-c2cc(C(=O)NCc3cccc(C(F)(F)F)c3)ccn2)c1` [Example 22, 3-((3-((2-(4-((3-(Trifluoromethyl)benzyl)carbamoyl)pyridin-2-yl)phenyl)carbamoyl)benzyl)thio)propanoic acid], the IC50 was 10 to 31.6 µM.

On to `CN(CCN1CCOCC1)C(=O)c1cccc(C(=O)Nc2ccc(N3CCCCC3)cc2-c2cc(-c3cn(Cc4ccccc4)nn3)ccn2)c1` [Example 24, N1-(2-(4-(1-Benzyl-1H-1,2,3-triazol-4-yl)pyridin-2-yl)-4-(piperidin-1-yl)phenyl)-N3-methyl-N3-(2-morpholinoethyl)isophthalamide], for which the IC50 is 1 to 7.94 µM.

With `O=C(O)CCSCc1cccc(C(=O)Nc2ccc(N3CCSCC3)cc2-c2cc(C(=O)NCc3cccc(C(F)(F)F)c3)ccn2)c1` [Example 27, 3-((3-((4-Thiomorpholino-2-(4-((3-(trifluoromethyl)benzyl)carbamoyl)pyridin-2-yl)phenyl)carbamoyl)benzyl)thio)propanoic acid], the IC50 is 1 to 7.94 µM.

As to `O=C(O)CCSCc1cccc(C(=O)Nc2ccc(N3CC4CCCC4C3)cc2-c2cc(C(=O)NCc3cccc(C(F)(F)F)c3)ccn2)c1` (stereo not shown) [Example 28, 3-((3-((4-(Hexahydrocyclopenta[c]pyrrol-2(1H)-yl)-2-(4-((3-(trifluoromethyl)-benzyl)carbamoyl)pyridin-2-yl)phenyl)carbamoyl)benzyl)thio)propanoic acid], the IC50 is 1 to 7.94 µM.

For `CCOc1ccc(NC(=O)c2cccc(CSCCC(=O)O)c2)c(-c2cc(C(=O)NCc3cccc(C(F)(F)F)c3)ccn2)c1` [Example 29, 3-((3-((4-Ethoxy-2-(4-((3-(trifluoromethyl)benzyl)carbamoyl)pyridin-2-yl)phenyl)carbamoyl)benzyl)thio)propanoic acid], the IC50 is 1 to 7.94 µM.

On to `COc1ccc(NC(=O)c2cccc(CSCCC(=O)O)c2)c(-c2cc(C(=O)NCc3cccc(C(F)(F)F)c3)ccn2)c1` [Example 30, 3-((3-((4-Methoxy-2-(4-((3-(trifluoromethyl)benzyl)carbamoyl)pyridin-2-yl)phenyl)carbamoyl)benzyl)thio)propanoic acid], for which the IC50 is 1 to 7.94 µM.

Take `COC1CCN(c2ccc(NC(=O)c3cccc(CSCCC(=O)O)c3)c(-c3cc(C(=O)NCc4cccc(C(F)(F)F)c4)ccn3)c2)CC1` [Example 31, 3-((3-((4-(4-Methoxypiperidin-1-yl)-2-(4-((3-(trifluoromethyl)benzyl)carbamoyl)-pyridin-2-yl)phenyl)carbamoyl)benzyl)thio)propanoic acid]: the IC50 is 10 to 31.6 µM.

On to `O=C(O)CCSCc1cccc(C(=O)Nc2ccc(OCC(F)(F)F)cc2-c2cc(C(=O)NCc3cccc(C(F)(F)F)c3)ccn2)c1` [Example 32], for which the IC50 is 10 to 31.6 µM.

For `CC(C)COc1ccc(NC(=O)c2cccc(CSCCC(=O)O)c2)c(-c2cc(C(=O)NCc3cccc(C(F)(F)F)c3)ccn2)c1` [Example 33], the IC50 is 10 to 31.6 µM.

For `COCCOc1ccc(NC(=O)c2cccc(CSCCC(=O)O)c2)c(-c2cc(C(=O)NCc3cccc(C(F)(F)F)c3)ccn2)c1` [Example 34, 3-((3-((4-(2-Methoxyethoxy)-2-(4-((3-(trifluoromethyl)benzyl)carbamoyl)pyridin-2-yl)phenyl)carbamoyl)benzyl)thio)propanoic acid], the IC50 was 10 to 31.6 µM.

In the case of `CCSc1ccc(NC(=O)c2cccc(CSCCC(=O)O)c2)c(-c2cc(C(=O)NCc3cccc(C(F)(F)F)c3)ccn2)c1` [Example 35, 3-((3-((4-(Ethylthio)-2-(4-((3-(trifluoromethyl)benzyl)carbamoyl)pyridin-2-yl)phenyl)carbamoyl)benzyl)thio)propanoic acid], the IC50 is 1 to 7.94 µM.

For `O=C(O)CCSCc1cccc(C(=O)Nc2ccc(Oc3ccccc3)cc2-c2cc(C(=O)NCc3cccc(C(F)(F)F)c3)ccn2)c1` [Example 36, 3-((3-((4-Phenoxy-2-(4-((3-(trifluoromethyl)benzyl)carbamoyl)pyridin-2-yl)phenyl)carbamoyl)benzyl)thio)propanoic acid], the IC50 is 1 to 7.94 µM.

Turning to `CN(CCN1CCN(S(C)(=O)=O)CC1)Cc1cccc(C(=O)Nc2ccc(N3CCCCC3)cc2-c2cc(C(=O)NCc3cccc(C(F)(F)F)c3)ccn2)c1` [Example 39], the IC50 is 1 to 7.94 µM.

With `CN1CCN(CCN(C)Cc2cccc(C(=O)Nc3ccc(N4CCCCC4)cc3-c3cc(C(=O)NCc4cccc(C(F)(F)F)c4)ccn3)c2)CC1` [Example 40, 2-(2-(3-((Methyl(2-(4-methylpiperazin-1-yl)ethyl)amino)methyl)benzamido)-5-(piperidin-1-yl)phenyl)-N-(3-(trifluoromethyl)benzyl)isonicotinamide], the IC50 is 10 to 31.6 µM.

Turning to `CC(=O)N1CCN(CCN(C)Cc2cccc(C(=O)Nc3ccc(N4CCCCC4)cc3-c3cc(C(=O)NCc4ccccc4)ccn3)c2)CC1` [Example 41, 2-(2-(3-(((2-(4-Acetylpiperazin-1-yl)ethyl)(methyl)amino)methyl)benzamido)-5-(piperidin-1-yl)phenyl)-N-benzylisonicotinamide], the IC50 was 10 to 31.6 µM.
